Data from US6548688B1, “Diammonium ruthenium diethylenethriaminepentaacetate or hydrates thereof and process for the preparation of both” (Chubu Chelest Co., Ltd., priority 1999, dated 2003).
Entries after “also recorded” stand apart in the source; their conditions may differ. Like-named read-outs stand apart in the source and are kept apart here.

Assays:
Assay type in all cases: physicochemical
solubility to water = details: 25° C.
[1] = pH of 5% aqueous solution
[2] = stability in the atmospheric condition and in aqueous solution

O=C([O-])CN(CCN1CCN2CC(=O)[O][Ru]([O]C(=O)C1)[O]C(=O)C2)CC(=O)[O-] [diammonium ruthenium diethylenetriaminepentaacetate]
solubility to water (solubility to water): 53 mass % | solubility (solubility to water; crystals of Example 1): 53% | pH of 5% aqueous solution [1]: 5.1 | pH of 5% aqueous solution ([1]; listed as DTPA.Ru(III).(NH4)2.2H2O): 5.10 | precipitation in aqueous solution on change of pH ([2]; acid or alkali added into the aqueous solution to change pH): does not precipitate; also recorded: without precipitating | storage stability (decomposition or transformation) ([2]; in the atmospheric condition and in the aqueous solution): can be stably preserved; also recorded: not decomposed
